From patent US6552014B2, “Methods of inhibiting platelet activation with selective serotonin reuptake inhibitors” (HeartDrug Research, L.L.C., priority 1999, dated 2003)

Legend:
Experiment in all cases: Flow cytometry of platelet antigen expression, platelet rich plasma
Assay type in all cases: cell-based, human
Settings in all cases: PRP
CD9 = tested on: CD9
Text: (§1) For ex vivo assessment of the SSRIs effect on a PAM, a level of a PAM can be assessed by flow cytometry by first obtaining a sample that comprises platelets and then contacting the sample with a platelet activation agonist, such as phorbol myristate acetate (PMA), ADP (adenosine diphosphate), thrombin, collagen, and/or TRAP (thrombin receptor activating peptide), under conditions suitable for activation of platelets in the sample. The sample is in contact with the agonist preferably for a period of time effective to maximally activate the platelets. […] NDMS at 31.1, 64.1 or 143 ng./ml). Then one contacts or stains the samples with a composition that comprises an anti-PAM antibody e.g., having a fluorescent label, preferably in an amount in excess of that required to bind the PAM expressed on the platelets, under conditions suitable for the formation of labeled complexes between the anti-PAM antibody and activated platelets. Then the formation of the complex in the sample is determined (detected or measured). […] The blood-ACD mixture was centrifuged at 1000 r.p.m. for 10 minutes at room temperature. […] The PRP was then centrifuged at 3000 r.p.m. for 10 minutes. […] All cells were then divided into ten plastic capped tubes. Nine portions of washed platelets were incubated with 5 μfluorescein isothiocyanate (FITC)-conjugated antibodies in the dark at +4 °C for 30 minutes, and one part remained unstained and served as a negative control. Surface antigen expression was measured with monoclonal murine anti-human antibodies: CD9 (p24); CD41a (IIb/IIIa, aIIIbb3); CD42b (Ib); CD61(IIIa) (DAKO Corporation, Carpinteria Calif.); CD49b (VLA-2, or a2b1); CD62p (P-selectin); CD31 (PECAM-1); […] The instrument was calibrated daily with fluorescence beads (CaliBRITE; Becton Dickinson) and measured FITC-conjugated fluorescence intensity. All parameters were obtained using four decade logarithmic amplification. The data was collected and stored in list mode, and then analyzed using CELLQuest® (version 1.2.2) software. Procedures are described in detail in (Gurbel, P. […] Serebruany, V. […] Gurbel, P. A. et al., Coron Artery Dis 9: 451-456 (1998) and Serebruany, V. L. et al., Arterioscl Thromb Vasc Biol 19: 153-158 (1999)). The data in table 1 was obtained using the methods described herein, and in particular, in Examples 1 and 2. The levels of various PAMs were assess from samples of human volunteers.

CPIa-IIa = tested on: CPIa-IIa
Text: as §1

GP IIIa = tested on: GP IIIa
Text: as §1

GP IIb/IIIa = tested on: GP IIb/IIIa
Text: as §1

GP IIb = tested on: GP IIb
Text: as §1

GP Ib = tested on: GP Ib
Text: as §1

PECAM-1 = tested on: PECAM-1
Text: as §1

[1] = healthy volunteers, desmethylsertraline 31.1 ng/ml
[2] = healthy volunteers, desmethylsertraline 64.2 ng/ml
[3] = healthy volunteers, desmethylsertraline 143 ng/ml
[4] = post-angioplasty patient on aspirin, desmethylsertraline 31.1 ng/ml
[5] = post-angioplasty patient on aspirin, desmethylsertraline 64.2 ng/ml
[6] = post-angioplasty patient on aspirin, desmethylsertraline 143 ng/ml

**Q.** `N[C@H]1CC[C@@H](c2ccc(Cl)c(Cl)c2)c2ccccc21` [Desmethyl sertraline, N-desmethylsertraline] was tested. Which “CD9 (mean) log fluorescence intensity” value (CD9; [1]) did it give?
**A.** Its value is 728.

**Q.** What about the “CD9 (peak) log fluorescence intensity” value (CD9; [1]) of the same molecule?
**A.** The value was 620.

**Q.** What about the “CD9 (peak) log fluorescence intensity” value (CD9; [2]) of the same molecule?
**A.** Its value is 805.

**Q.** What about the “CD9 (mean) log fluorescence intensity” value (CD9; [3]) of the same molecule?
**A.** Its value is 837.

**Q.** And the “CD9 (peak) log fluorescence intensity” value (CD9; [3])?
**A.** The value was 770.

**Q.** And the “CD9 (mean) log fluorescence intensity” value (CD9; [4])?
**A.** The value was 908.

**Q.** And the “CD9 (peak) log fluorescence intensity” value (CD9; [4])?
**A.** The value was 1046.

**Q.** What about the “CD9 (mean) log fluorescence intensity” value (CD9; [5]) of the same molecule?
**A.** The value was 927.

**Q.** And the “CD9 (peak) log fluorescence intensity” value (CD9; [5])?
**A.** Its value is 930.

**Q.** What about the “CD9 (mean) log fluorescence intensity” value (CD9; [6]) of the same molecule?
**A.** Its value is 853.

**Q.** What about the “CD9 (peak) log fluorescence intensity” value (CD9; [6]) of the same molecule?
**A.** Its value is 850.

**Q.** What about the “CPIa-IIa (mean) log fluorescence intensity” value (CPIa-IIa; [1]) of the same molecule?
**A.** The value was 41.

**Q.** What about the “CPIa-IIa (peak) log fluorescence intensity” value (CPIa-IIa; [1]) of the same molecule?
**A.** The value was 42.

**Q.** And the “CPIa-IIa (mean) log fluorescence intensity” value (CPIa-IIa; [3])?
**A.** The value was 43.

**Q.** And the “CPIa-IIa (peak) log fluorescence intensity” value (CPIa-IIa; [3])?
**A.** The value was 40.

**Q.** And the “CPIa-IIa (mean) log fluorescence intensity” value (CPIa-IIa; [4])?
**A.** Its value is 62.

**Q.** What about the “CPIa-IIa (peak) log fluorescence intensity” value (CPIa-IIa; [4]) of the same molecule?
**A.** The value was 59.

**Q.** What about the “CPIa-IIa (mean) log fluorescence intensity” value (CPIa-IIa; [5]) of the same molecule?
**A.** The value was 62.

**Q.** And the “CPIa-IIa (peak) log fluorescence intensity” value (CPIa-IIa; [5])?
**A.** The value was 53.

**Q.** And the “CPIa-IIa (mean) log fluorescence intensity” value (CPIa-IIa; [6])?
**A.** Its value is 40.

**Q.** What about the “CPIa-IIa (peak) log fluorescence intensity” value (CPIa-IIa; [6]) of the same molecule?
**A.** The value was 48.

**Q.** And the “GP IIIa (mean) log fluorescence intensity” value (GP IIIa; [1])?
**A.** The value was 981.

**Q.** And the “GP IIIa (peak) log fluorescence intensity” value (GP IIIa; [1])?
**A.** The value was 913.

**Q.** And the “GP IIIa (mean) log fluorescence intensity” value (GP IIIa; [2])?
**A.** Its value is 1178.

**Q.** What about the “GP IIIa (mean) log fluorescence intensity” value (GP IIIa; [3]) of the same molecule?
**A.** The value was 1182.

**Q.** And the “GP IIIa (peak) log fluorescence intensity” value (GP IIIa; [3])?
**A.** Its value is 1046.

**Q.** What about the “GP IIIa (mean) log fluorescence intensity” value (GP IIIa; [4]) of the same molecule?
**A.** The value was 1235.

**Q.** What about the “GP IIIa (peak) log fluorescence intensity” value (GP IIIa; [4]) of the same molecule?
**A.** The value was 1298.

**Q.** What about the “GP IIIa (peak) log fluorescence intensity” value (GP IIIa; [5]) of the same molecule?
**A.** The value was 1144.

**Q.** And the “GP IIIa (mean) log fluorescence intensity” value (GP IIIa; [6])?
**A.** Its value is 1259.

**Q.** What about the “GP IIIa (peak) log fluorescence intensity” value (GP IIIa; [6]) of the same molecule?
**A.** The value was 1219.

**Q.** And the “GP IIb/IIIa (mean) log fluorescence intensity” value (GP IIb/IIIa; [1])?
**A.** The value was 580.

**Q.** What about the “GP IIb/IIIa (peak) log fluorescence intensity” value (GP IIb/IIIa; [1]) of the same molecule?
**A.** The value was 457.

**Q.** What about the “GP IIb/IIIa (mean) log fluorescence intensity” value (GP IIb/IIIa; [2]) of the same molecule?
**A.** The value was 743.

**Q.** What about the “GP IIb/IIIa (peak) log fluorescence intensity” value (GP IIb/IIIa; [2]) of the same molecule?
**A.** The value was 649.

**Q.** What about the “GP IIb/IIIa (mean) log fluorescence intensity” value (GP IIb/IIIa; [3]) of the same molecule?
**A.** Its value is 708.

**Q.** What about the “GP IIb/IIIa (peak) log fluorescence intensity” value (GP IIb/IIIa; [3]) of the same molecule?
**A.** Its value is 509.

**Q.** And the “GP IIb/IIIa (mean) log fluorescence intensity” value (GP IIb/IIIa; [4])?
**A.** The value was 948.

**Q.** And the “GP IIb/IIIa (peak) log fluorescence intensity” value (GP IIb/IIIa; [4])?
**A.** Its value is 791.

**Q.** And the “GP IIb/IIIa (mean) log fluorescence intensity” value (GP IIb/IIIa; [5])?
**A.** The value was 918.

**Q.** What about the “GP IIb/IIIa (peak) log fluorescence intensity” value (GP IIb/IIIa; [5]) of the same molecule?
**A.** Its value is 777.

**Q.** And the “GP IIb/IIIa (mean) log fluorescence intensity” value (GP IIb/IIIa; [6])?
**A.** The value was 836.

**Q.** And the “GP IIb/IIIa (peak) log fluorescence intensity” value (GP IIb/IIIa; [6])?
**A.** The value was 716.

**Q.** And the “GP IIb (mean) log fluorescence intensity” value (GP IIb; [1])?
**A.** The value was 33.

**Q.** And the “GP IIb (peak) log fluorescence intensity” value (GP IIb; [1])?
**A.** The value was 31.

**Q.** What about the “GP IIb (peak) log fluorescence intensity” value (GP IIb; [2]) of the same molecule?
**A.** The value was 31.

**Q.** What about the “GP IIb (mean) log fluorescence intensity” value (GP IIb; [3]) of the same molecule?
**A.** The value was 30.

**Q.** What about the “GP IIb (peak) log fluorescence intensity” value (GP IIb; [3]) of the same molecule?
**A.** The value was 35.

**Q.** And the “GP IIb (mean) log fluorescence intensity” value (GP IIb; [4])?
**A.** Its value is 24.

**Q.** What about the “GP IIb (peak) log fluorescence intensity” value (GP IIb; [4]) of the same molecule?
**A.** Its value is 21.

**Q.** What about the “GP IIb (mean) log fluorescence intensity” value (GP IIb; [5]) of the same molecule?
**A.** Its value is 22.

**Q.** And the “GP IIb (mean) log fluorescence intensity” value (GP IIb; [6])?
**A.** The value was 29.

**Q.** What about the “GP IIb (peak) log fluorescence intensity” value (GP IIb; [6]) of the same molecule?
**A.** Its value is 25.

**Q.** What about the “GP Ib (mean) log fluorescence intensity” value (GP Ib; [1]) of the same molecule?
**A.** Its value is 146.

**Q.** What about the “GP Ib (peak) log fluorescence intensity” value (GP Ib; [1]) of the same molecule?
**A.** The value was 94.

**Q.** And the “GP Ib (mean) log fluorescence intensity” value (GP Ib; [2])?
**A.** The value was 299.

**Q.** And the “GP Ib (peak) log fluorescence intensity” value (GP Ib; [2])?
**A.** Its value is 266.

**Q.** What about the “GP Ib (mean) log fluorescence intensity” value (GP Ib; [3]) of the same molecule?
**A.** The value was 309.

**Q.** And the “GP Ib (peak) log fluorescence intensity” value (GP Ib; [3])?
**A.** Its value is 336.

**Q.** And the “GP Ib (mean) log fluorescence intensity” value (GP Ib; [4])?
**A.** The value was 167.

**Q.** What about the “GP Ib (peak) log fluorescence intensity” value (GP Ib; [4]) of the same molecule?
**A.** Its value is 165.

**Q.** And the “GP Ib (mean) log fluorescence intensity” value (GP Ib; [5])?
**A.** Its value is 198.

**Q.** What about the “GP Ib (peak) log fluorescence intensity” value (GP Ib; [5]) of the same molecule?
**A.** The value was 167.

**Q.** What about the “GP Ib (mean) log fluorescence intensity” value (GP Ib; [6]) of the same molecule?
**A.** Its value is 222.

**Q.** What about the “GP Ib (peak) log fluorescence intensity” value (GP Ib; [6]) of the same molecule?
**A.** The value was 201.

**Q.** And the “PECAM-1 (mean) log fluorescence intensity” value (PECAM-1; [1])?
**A.** The value was 74.

**Q.** And the “PECAM-1 (peak) log fluorescence intensity” value (PECAM-1; [1])?
**A.** Its value is 60.

**Q.** And the “PECAM-1 (mean) log fluorescence intensity” value (PECAM-1; [2])?
**A.** The value was 101.

**Q.** And the “PECAM-1 (mean) log fluorescence intensity” value (PECAM-1; [3])?
**A.** The value was 81.

**Q.** What about the “PECAM-1 (peak) log fluorescence intensity” value (PECAM-1; [3]) of the same molecule?
**A.** Its value is 74.

**Q.** And the “PECAM-1 (mean) log fluorescence intensity” value (PECAM-1; [4])?
**A.** The value was 94.

**Q.** What about the “PECAM-1 (peak) log fluorescence intensity” value (PECAM-1; [4]) of the same molecule?
**A.** Its value is 83.

**Q.** And the “PECAM-1 (mean) log fluorescence intensity” value (PECAM-1; [6])?
**A.** The value was 90.

**Q.** What about the “PECAM-1 (peak) log fluorescence intensity” value (PECAM-1; [6]) of the same molecule?
**A.** The value was 84.
